Data as given in patent publication US20260306460A1, “COMPOSITION FOR REMOVING AND INHIBITING SENESCENT CELLS, AND USES THEREOF” (LIFECEUTIX CO., LTD., priority 2023, published 2026).

Columns and labels:
naturally aged mice = test: Anti-aging evaluation in naturally aged mice, Example 31, Table 55; assay type: in vivo, mouse; conditions: for Femur Ctsk mRNA / Kidney Agtr1a mRNA / Liver IL6 mRNA / Liver MMP3 mRNA / Liver p16 mRNA / Open Field Test Time in Center: untreated = 100%; for Heart Sur2a mRNA / Joint Col2a1 mRNA / Skin Col1a1 mRNA / Skin SDF1 mRNA: untreated = 1.0; for Muscle Mass: untreated 0.64 g; for Fat Mass: untreated 0.82 g; for Cataract incidence: untreated 83%;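 on all read-outs here: Vehicle-dosed control mice received solution alone at matching volume, values compare test-compound-treated aged mice against that control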
Method: After the end of drug administration, the method described in each example below was performed. […] The mRNA amounts of p16, MMP3, and IL6 after natural aging was induced were calculated as 100% and compared with the mRNA amounts of p16, MMP3, and IL6 after treatment with the test compound. In addition, an open field test for the analysis of aging-related frailty, agtr1a mRNA analysis for kidney damage and disease evaluation, col1a1 and SDF1 mRNA analysis for skin aging evaluation such as wrinkles/loss of elasticity/hyperpigmentation, col2a1 mRNA analysis for evaluating joint aging such as osteoarthritis, sur2a mRNA analysis for evaluating cardiac aging such as decreased cardiac load resistance, ctsk mRNA analysis for evaluating bone diseases due to aging such as osteoporosis, muscle tissue weight for analyzing sarcopenia, fat tissue weight for analyzing lipoatrophy, and cataract incidence analysis were performed in mice. For cataract incidence analysis, the drug was administered twice a week under the conditions specified above, and biweekly examinations were conducted until death.

senescent A549 cells [1] = test: Viability of senescent A549 cancer cells (CellTiter-Glo), Example 12; assay type: cell-based, human; conditions: 0 μM = 100
Method: (§1) Cells were treated with doxorubicin or control (DMSO) and cultured.
Cancer cells in which aging was induced by treatment with doxorubicin were treated with the test compound at designated concentrations and measured using the CellTiter-Glo Luminescent Cell Viability Assay (Promega).

[2] = test system: bleomycin-induced pulmonary fibrosis mice; test: Bleomycin-induced pulmonary fibrosis mice, Example 31, Table 56; assay type: in vivo, mouse; conditions: untreated = 100%
Procedure, shortened: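 Mice with bleomycin-induced pulmonary fibrosis, untreated or given test compound, with vehicle-only controls. Lung tissue collected for RNA extraction and qRT-PCR analysis.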

senescent human cells = test: Viability of doxorubicin-induced senescent human cells (CellTiter-Glo), Example 11; assay type: cell-based; conditions: 0 μM = 100
Method: Cells in which senescence was induced by treatment with doxorubicin were treated with the test compound at designated concentrations and measured using the CellTiter-Glo Luminescent Cell Viability Assay (Promega).
After 3 days, cell viability was measured using CellTiter-Glo Luminescent Cell Viability Assay (Promega) or light microscopy.

[3] = test system: HMGN1 secreted from senescent A549 cells; test: HMGN1 secretion (ELISA) from senescent A549 cancer cells, Example 12; assay type: cell-based, human; conditions: senescent untreated = 100%; 30 μM; 90 μM for LX-305, 905, 1302, 1601, 1603, 2003, 2702, 2901, 3106; 270 μM for LX-1103, 2005, 2007;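 further: A549 cells made senescent by doxorubicin exposure, with DMSO-treated cells serving as the non-senescent control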
Method: as §1

senescent foreskin cells = test: Survival of senescent human cells treated with supernatant (secreted fluid) from death-induced cells, Example 13; assay type: cell-based; conditions: Table 8; supernatant from dying senescent cells treated at 30, 90 or 270 μM (as Example 11); senescent treated cells
[4] = test system: HMGN1 secreted from senescent human cells; test: HMGN1 secretion (ELISA) from doxorubicin-induced senescent human cells, Example 11; assay type: cell-based; conditions: senescent untreated = 100%; 30 μM; 90 μM for LX-305, 1302, 1603, 2005, 2702, 2901, 3106; 270 μM for LX-1103, 2007
[5] = test system: carbon tetrachloride-induced liver fibrosis mice; test: Carbon tetrachloride-induced liver fibrosis mice, Example 31, Table 57; assay type: in vivo, mouse; conditions: CCl4-induced liver fibrosis mice, untreated = 100%
Procedure, shortened: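 Mice with induced hepatic fibrosis received either the test compound or, as controls, an equal volume of vehicle solution alone. Once dosing ended, liver tissue was harvested and total RNA was isolated. cDNA was synthesized from this RNA, and quantitative RT-PCR was run on it to measure hepatic mRNA levels of the fibrosis- and senescence-related genes.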

[6] = test system: HMGN1 secreted from senescent cells; test: HMGN1 secretion (ELISA) from doxorubicin-induced senescent cells, Example 17; assay type: cell-based, human; conditions: senescent untreated = 100%; 30 μM; 90 μM for LX-5211, 5433, 6530, 9105, 9118, 9321, 9602; 2.4 mM for LX-9336
senescent cells = test: Viability of senescent cells (CellTiter-Glo), Example 17, Table 13; conditions: doxorubicin-induced senescent cells, 0 μM = 100
Method: Cells induced to undergo senescence by doxorubicin treatment were treated with test compound at designated concentrations and measured using the CellTiter-Glo Luminescent Cell Viability Assay (Promega).

senescent A549 cells [7] = test: Viability of senescent A549 cells (CellTiter-Glo), Example 18, Table 15; conditions: doxorubicin-induced senescent A549 cells, 0 μM = 100%
Method: Senescence-induced cancer cells treated with doxorubicin were treated with the test compound at designated concentrations, and cell viability was measured using the CellTiter-Glo Luminescent Cell Viability Assay (Promega).

[8] = test system: HMGN1 secreted from senescent A549 cells; test: HMGN1 secretion (ELISA) from senescent A549 cells, Example 18, Table 14; assay type: cell-based, human; conditions: doxorubicin-senescent A549, without test compound (DMSO) = 100%; 30 μM (LX-5211, LX-5433, LX-6530, LX-6800, LX-9105, LX-9118, LX-9131, LX-9136, LX-9302, LX-9321, LX-9565, LX-9602 at 90 μM; LX-9336 at 2.4 mM)
Method: On the other hand, in cancer cells treated with doxorubicin, where senescence was induced, the amount of HMGN1 measured under conditions where cells were not treated with the test compound was calculated as 100%, and the amount of HMGN1 was measured under conditions where the senescent cancer cells were treated with the test compound.

[9] = test system: naturally aged C57BL6J mice; test: Geriatric depression and anxiety in aged mice, Example 21-8; assay type: in vivo, mouse; conditions: aged mice
Text: The amount of senescent-associated secretory factor (SASP) in serum and tissues collected from mice of Examples 21-5 and 21-6 was reduced by treatment with LX-5701, LX-2101, or LX-2102. It was confirmed that removing senescent cells, which increase with aging in mice, and effectively reducing the amount of senescent-associated secretory factor (SASP) can improve symptoms of geriatric depression and anxiety.

[10] = test system: obesity-induced aged C57BL6J mice; test: Anxiety, depression, lethargy (open field test) in obesity-aged mice, Example 23-4, Table 44; assay type: in vivo, mouse; conditions: obesity-aged mice
Method: 15-week-old male C57BL6J mice (The Jackson Laboratory) were induced to obesity by a high-fat diet using the same method as in Example 9-1 WO2023-085787 A1. After acclimation to the experimental environment for one week, the mice were randomly assigned to experimental and control groups. […] LX-3002 was mixed in distilled water with 4% DMSO, 30% PEG300, and 5% Tween80 and administered orally at a concentration of 10 mg/kg daily for 21 days. LX-5701 was mixed in PBS and administered orally at a concentration of 360 mg/kg daily for 21 days. LX-6807 was mixed in saline and administered intraperitoneally at a concentration of 1 mg/kg daily for 21 days. The control group received only the solution in the same volume. After the end of drug administration, the methods described in each example below were performed.
It was determined that anxiety and depression caused by obesity are not causally related to increased body weight, but rather are caused by the accumulation of senescent cells. Accordingly, an activity assessment (open field test) was performed using the same method as in Example 7-7 of WO2023-085787 A1 to analyze lethargy caused by anxiety and depression caused by obesity in mice. The table below quantitatively represents activity, a criterion for assessing lethargy due to anxiety and depression, under conditions in which aging was induced by obesity and the test compound was not administered or was administered. The activity assessment after obesity-induced aging was calculated as 100% and compared with the activity assessment after test compound treatment.

[11] = MST; described in WO2021183908A1; cited from earlier work

| SMILES | Femur Ctsk mRNA (naturally aged mice) | Heart Sur2a mRNA (naturally aged mice) | Joint Col2a1 mRNA (naturally aged mice) | Kidney Agtr1a mRNA (naturally aged mice) | Liver IL6 mRNA (naturally aged mice) | Liver MMP3 mRNA (naturally aged mice) | Liver p16 mRNA (naturally aged mice) | Open Field Test Time in Center (naturally aged mice) | Skin Col1a1 mRNA (naturally aged mice) | Skin SDF1 mRNA (naturally aged mice) | Muscle Mass (naturally aged mice) | Fat Mass (naturally aged mice) | Cataract incidence (naturally aged mice) | Lung p16 mRNA [2] | Col1a1 mRNA [2] | Liver p16 mRNA [5] | Col1a1 mRNA [5] | HMGN1 [6] | Survival (%) (senescent cells; 1.1 μM) | Survival (%) (senescent cells; 10 μM) | also measured |
| --- | --- | --- | --- | --- | --- | --- | --- | --- | --- | --- | --- | --- | --- | --- | --- | --- | --- | --- | --- | --- | --- |
| C[N+](C)(C)CCO.C[N+](C)(C)CCO.[SH-].[SH-].[S]=[Mo]=[S] [LX-2601] | 60% | 2.7 fold | 2.3 fold | 73% | 75% | 77% | 73% | 166% | 2.3 Fold | 1.9 fold | 0.71 g | 0.88 g | 80% | 81 (±5.2) % | 67 (±3.0) % | 75 (±3.2) % | 63 (±2.6) % |  |  |  | Survival (senescent A549 cells [1]; 1.1 μM): 98.6%; Survival (senescent A549 cells [1]; 10 μM): 59.7%; Survival (senescent A549 cells [1]; 30 μM): 50.7%; Survival (senescent A549 cells [1]; […]): 86%; Survival (senescent human cells; 1.1 μM): 95.2%; Survival (senescent human cells; 10 μM): 58.6%; Survival (senescent human cells; 30 μM): 21.8%; Survival (senescent human cells; […]): 81.8%; HMGN1 [3]: 193%; Survival (senescent foreskin cells): 67.3; HMGN1 [4]: 263% |
| CCOC(=O)[C@@H](N)CCC(=O)N[C@@H](CSCc1ccccc1)C(=O)N[C@@H](C(=O)OCC)c1ccccc1 [LX-2602, Ezatiostat] | 59% | 1.7 fold | 2.2 fold | 61% | 80% | 64% | 71% | 158% | 2.5 Fold | 2.0 fold | 0.69 g | 0.84 g | 81% | 68 (±3.5) % | 58 (±2.9) % | 77 (±3.9) % | 82 (±3.7) % |  |  |  | Survival (senescent A549 cells [1]; 1.1 μM): 102.7%; Survival (senescent A549 cells [1]; 10 μM): 96%; Survival (senescent A549 cells [1]; 30 μM): 32.5%; Survival (senescent A549 cells [1]; […]): 107.4%; Survival (senescent human cells; 1.1 μM): 97.3%; Survival (senescent human cells; 10 μM): 76.9%; Survival (senescent human cells; 30 μM): 47.6%; Survival (senescent human cells; […]): 92.5%; HMGN1 [3]: 283%; Survival (senescent foreskin cells): 69.5; HMGN1 [4]: 208% |
| COC[C@]1(CO)C(=O)[C@H]2CC[N@]1[C@H](C)C2 [LX-5731, (1R,2R,4S,6R)-2-(hydroxymethyl)-2-(methoxymethyl)-6-methylquinuclidin-3-one] | 44% | 2.5 fold | 2.7 fold | 49% | 42% | 77% | 58% | 237% | 2.3 Fold | 2.0 fold | 0.71 g | 1.01 g | 72% | 69 (±3.7) % | 62 (±13.8) % | 60 (±6.5) % | 64 (±10.4) % | 235% | 98.8% | 48.2% | Survival (%) (senescent cells; 30 μM): 11.7%; Survival (%) (senescent cells; […]): 89.8%; Survival (%) (senescent A549 cells [7]; 1.1 μM): 94.4%; Survival (%) (senescent A549 cells [7]; 10 μM): 30.6%; Survival (%) (senescent A549 cells [7]; […]): 83.1%; HMGN1 [8]: 307% |
| CCNCc1nc2c(O)c(Cl)cc(Cl)c2c(=O)n1C [LX-9421] | 44% | 2.1 fold | 2.8 fold | 46% | 41% | 32% | 57% | 222% | 2.3 Fold | 2.6 fold | 0.78 g | 0.99 g | 54% | 35 (±1.6) % | 40 (±2.0) % | 59 (±5.4) % | 34 (±3.7) % | 201% | 92.1% | 67.9% | Survival (%) (senescent cells; 30 μM): 25.9%; Survival (%) (senescent cells; […]): 89.3%; Survival (%) (senescent A549 cells [7]; 1.1 μM): 102.9%; Survival (%) (senescent A549 cells [7]; 10 μM): 62.3%; Survival (%) (senescent A549 cells [7]; 30 μM): 20.7%; Survival (%) (senescent A549 cells [7]; […]): 83.3%; HMGN1 [8]: 284% |
| CN(CCOc1ccc(CC2SC(=O)NC2=O)cc1)c1ccccn1 (stereo not shown) [LX-9423, Rosiglitazone] |  |  |  |  |  |  |  |  |  |  |  |  |  |  |  |  |  | 227% | 79.5% | 25.4% | Survival (%) (senescent cells; 30 μM): 8.7%; Survival (%) (senescent cells; […]): 71.8%; amount of SASP, p16, SA-β-gal, lipofuscin [9]: reduced; symptoms of geriatric depression and anxiety [9]: improved; geriatric depression [10]: similarly improving geriatric depression; Survival (%) (senescent A549 cells [7]; 1.1 μM): 82.1%; Survival (%) (senescent A549 cells [7]; 10 μM): 39.8%; Survival (%) (senescent A549 cells [7]; 30 μM): 3.0%; Survival (%) (senescent A549 cells [7]; […]): 78.3%; HMGN1 [8]: 239% |
| CC(C)(C)OC(=O)CCN1C(=O)c2ccccc2C1=O [QW-011] |  |  |  |  |  |  |  |  |  |  |  |  |  |  |  |  |  |  |  |  | Kd [11]: 926 nM |
| CC(C)OC(=O)CCCN1C(=O)c2ccccc2C1=O [QW-017] |  |  |  |  |  |  |  |  |  |  |  |  |  |  |  |  |  |  |  |  | Kd [11]: 399 nM |
